Assay results from US9834525B2, “Inhibitors of paxillin function and related compositions and methods” (UNIVERSITY OF TENNESSEE RESEARCH FOUNDATION, priority 2015, dated 2017).
“Also recorded” adds a separate entry of the source.

What was measured:
[1] = test system: retinal endothelial cells (REC); experiment: REC attachment assay; type: cell-based, human; settings: increasing concentrations (100 nM to 1 μM), six hours
From the text: Adhesive interactions with extracellular matrix proteins rely on focal adhesion proteins engaging with integrins to strengthen and maintain cell contacts. In the transwell migration assay system, initial cell-attachment to the porous membrane was relied upon in order to obtain a measure of cells that have migrated through to the underside of the well. Since compound (II-4) was in direct contact with cells prior to being seeded onto the transwell membranes, the potential of compound (II-4) to impede the attachment of RECs to the membranes was investigated. […] However, investigation of integrin-mediated signaling may be of interest to further evaluate and characterize compound (II-4)'s potential role in disrupting cross-talk between growth-factor and integrin-mediated signaling during pathological retinal angiogenesis.
FIG. 19: REC attachment assay. Increasing concentrations of compound (II-4) with suspended RECs were seeded to 96-wells to investigate inhibition of REC-adherence to attachment-factor surfaces. […] (P>0.05; n=8).

UM tumor cells = experiment: Phalloidin (F-actin) analysis by flow cytometry in UM cells; type: cell-based, human; settings: treatment for 24 hrs
Description: Retinal endothelial cells (REC) and UM-OMM 2.5 cells were harvested, washed and counted. 1.0×10^6 cells were fixed for 1 hr at 4° C. and permeabilized with the Intracellular Fixation and Permeabilization Buffer Kit (eBiosciences, San Diego, Calif.). Cells were washed followed by Alexa-Fluor 647 Phalloidin (MOLECULAR PROBES, Life Technologies, Carlsbad, Calif.) labeling using 1 U/μL. Cells were washed and analyzed using BD LSR II followed by analysis using FlowJo xV10.0.6 software.
Next, it was investigated if reduced numbers were a consequence of a reduction in UM cells proliferation. Cell cultures in the presence or absence of compound (II-4) were analyzed by follow cytometry for cytoskeletal fragmentation and proliferation. Uncontrolled cytoskeletal remodeling and cell proliferation are considered hallmarks of tumor growth and metastasis. […]
FIG. 15: The paxillin inhibitor Compound (II-4) selectively affects cellular proliferation of primary UM cells that become metastatic. […] Unlabeled cells were used to control fluorescence. […] B. Quantitation of experiment +/−SD including primary UM that becomes metastatic (Mel 270), metastatic (OMM 2.1) and primary (92.1) UM cells. *P=0.0007 and **P=0.0005. […] Quantitation of VLA-4 protein levels +/−SD from n=3. […]

[2] = Microsomal stability, pooled human liver microsomes; type: in vitro ADME
Description: Microsomal stability of compound (II-4) (1 μM) was assessed in pooled liver microsomes (human, mouse, and rat) (FIG. 7). Briefly, compound (II-4) was incubated in duplicate with microsomes at 37° C. Reactions contained microsomal protein in 100 mM potassium phosphate, 2 mM NADPH, 3 mM MgCl2, pH 7.4. NADPH was omitted to detect NADPH-free degradation. At 60 minutes, the reaction was stopped by adding ice-cold methanol containing internal standard. Samples were centrifuged to remove precipitated protein, and the supernatants were analyzed by LC/MS/MS to quantitate the remaining parent.
Microsomal stability of compound (II-4) (1 μM) was assessed in pooled liver microsomes (human, mouse, and rat) (FIG. 23). Briefly, compound (II-4) was incubated in duplicate with microsomes at 37° C. Reactions contained microsomal protein in 100 mM potassium phosphate, 2 mM NADPH, 3 mM MgCl2, pH 7.4. NADPH was omitted to detect NADPH-free degradation. At 60 min, the reaction was stopped by adding ice-cold methanol (+ internal standard). Samples were centrifuged to remove precipitated protein, and the supernatants were analyzed by LC/MS/MS to quantitate the remaining parent.

CYP2D6 = target: T1, CYP2D6 (Homo sapiens, UniProt P10635); experiment: CYP-450 interaction study in pooled human liver microsomes, CYP2D6; type: in vitro ADME; settings: 1 μM
T1 construct: from tissue; host or cells: pooled human liver microsomes
T1 sequence (P10635 whole entry): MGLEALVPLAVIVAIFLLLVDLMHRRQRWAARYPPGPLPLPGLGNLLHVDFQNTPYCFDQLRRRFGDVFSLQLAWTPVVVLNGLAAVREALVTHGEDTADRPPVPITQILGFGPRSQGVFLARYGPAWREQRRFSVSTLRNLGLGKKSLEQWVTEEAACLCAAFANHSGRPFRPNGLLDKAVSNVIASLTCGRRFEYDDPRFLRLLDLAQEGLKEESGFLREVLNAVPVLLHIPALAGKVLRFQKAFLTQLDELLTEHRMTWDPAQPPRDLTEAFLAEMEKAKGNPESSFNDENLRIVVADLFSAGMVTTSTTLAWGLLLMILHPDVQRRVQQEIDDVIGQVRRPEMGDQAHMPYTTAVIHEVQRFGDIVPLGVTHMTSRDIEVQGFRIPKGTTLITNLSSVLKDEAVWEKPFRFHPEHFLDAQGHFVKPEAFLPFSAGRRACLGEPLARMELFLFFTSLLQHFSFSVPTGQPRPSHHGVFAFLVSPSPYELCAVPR
Description: CYP-450 interaction studies were conducted in pooled human liver microsomes (FIG. 8). CYP-450 inhibition (%) by compound (II-4) (1 μM) was compared to control inhibitors (1 μM) for the most common CYP-450 isoforms, CYP3A4, CYP2C9, CYP2D6, CYP2C19, and CYP1A2.
CYP-450 interaction studies were conducted in pooled human liver microsomes (FIG. 24). CYP-450 inhibition (%) by compound (II-4) (1 μM) was compared to control inhibitors (1 μM) for the most common CYP-450 isoforms, 3A4, 2C9, 2D6, 2C19, and 1A2.

murine OIR model = experiment: Murine OIR model, retinal whole-mounts; type: in vivo, mouse; settings: daily ocular administration 0.5 mg/kg or 5 mg/kg in ME, P12 to P17, vs vehicle
From the text: (§1) Topical delivery of compound (II-4) using an ocular ME was chosen for several reasons. First, intravitreal injection is technically challenging and, unlike intraocular delivery of proteins, is unnecessary for delivery of small molecules. […] The murine OIR model was used to examine the effect of compound (II-4) on the natural history of VEGF-induced proliferative retinopathy. Briefly, pups were exposed to 75% oxygen at post-natal day 7 (P7) for 5 days and then returned to normal oxygen at P12. Mice received daily ocular administration of either compound (II-4) (0.5 mg/kg or 5 mg/kg) or vehicle (ME) from P12 to P17. Eyes were enucleated at P17 and retinal whole-mounts stained for endothelial cells followed by quantification of avascular area and vascular tuft formation.
(§2) FIG. 22: Oxygen-Induced Retinopathy (OIR). (A:) P17 retinal whole-mounts were stained for endothelial cells. […] Data represent mean (±SD). N=8-14/group. […] (C): Quantitation of panel A neovascular area. (D): Quantitation of panel A avascular area. (E): Quantitation of panel B total paxillin.

paxillin = experiment: Murine OIR model, Western blot of retinal homogenates; type: in vivo, mouse; settings: daily ocular administration 0.5 mg/kg or 5 mg/kg, P17
From the text: as §1, §2

COc1cc(C2OC(=O)Nc3c2ccc2ccccc32)cc(OC)c1OC (centres unmarked) [compound II-4]
attachment of RECs to attachment-factor coated wells [1]: did not impede the attachment | actin remodeling (intracellular phalloidin, F-actin) (UM tumor cells): no difference in actin remodeling | susceptibility to P-450 interaction in human microsomes compared to rodent ([2]; human vs rodent microsomes): less susceptible | microsomal stability (metabolism by cytochrome P-450 enzymes) ([2]; human, 1 μM, 37° C., 60 min): rapidly metabolized | CYP-450 inhibition, CYP2D6 (CYP2D6): lack of significant inhibition; also recorded: lacks significant inhibition | hypoxia-induced neovascularization (neovascular area) (murine OIR model): striking inhibition; also recorded: reductions in NV | retinal avascular area (murine OIR model): modest increase; also recorded: increases in AV | total paxillin in retinal homogenates (paxillin): dose-dependent reduction; also recorded: reduced total paxillin protein
